In patent publication US20020013300A1, “Methods for improving size and appearance of a wound” (Avocet Polymer Technologies, Inc., priority 2000, published 2002):

How the values were obtained:
Format in all cases: in vivo, human patient
hypertrophic scar [1] = assay: Example 2, Patient three: treatment of a tender hypertrophic facial scar; conditions: 7 weeks
Excerpt: The patient's chief complaint was irritation with daily grooming and itching from scars located on the face. The patient underwent a medical history and physical examination. […] Clinical progress was followed using photographic and ultrasound imaging as well as a patient self-report. […] Color changes were documented by photographs. Ultrasound images documented the scar size change.

hypertrophic scar [2] = assay: Example 3, Patient 25: treatment of an irritated hypertrophic forearm scar
Description: The patient's chief complaint was an irritated scar of the forearm for more than two years. The patient underwent a medical history and physical examination. On examination, a raised irregularly contoured errythematous hypertrophic scar was observed. Materials and Methods: After review of clinical options, the patient was prescribed nabumetone for 4 weeks. […] The combination of nabumetone and hydrogel was used for 15-18 hours each day for a period of 8 weeks. Clinical progress was followed using photographic imaging as well as patient self-report.

post-operative scar = assay: Example 4, Patient two: treatment of a raised post-operative leg scar
Description: The patient's chief complaint was difficulty sleeping or resting because of a post-operative orthopoedic right leg scar that was irritated and raised. The patient underwent a medical history and physical examination. Notable medication use was a 325 mg tablet of acetylsalicylic acid orally administered to prevent thrombo-embolic post-operative complications. On examination, a 15 cm raised erythematous post-operative scar of 15 cm length and approximately 3 mm width was noted, with exquisite sensitivity to examination and evidence of excoriation. At the time of exam, the patient denied itching. […] To avoid the use of adhesives, an ace wrap bandage was used to hold the gel—salicylic acid combination in place. Gel plus salicylic acid co-administration was monitored by a daily patient diary. Photographs and patient self report were used to assess treatment results. Itching complaints were followed using a 10 point itching scale. Pre-treatment itching scale was entered as 0, reflecting onset of aspirin use prior therapy. RESULTS: Compliance with treatment regimen was documented daily. […] Itching symptoms were reported at 0.

[3] = test system: post-operative caesarean section scar; assay: Example 5, Patient one: treatment of an itchy caesarean section scar
Excerpt: The patient's chief complaint was a burning itchy sensation in a closed post-operative caesarean section scar. The patient underwent a medical history and physical examination. On examination, an 18 cm irritated lower abdominal vertical healed incision was noted, with evidence of excoriation. […] To avoid the use of adhesives, a control top stretch panty was used to hold the gel—salicylic acid combination in place. Gel plus salicylic acid co-administration was monitored by a daily patient diary. Photographs and patient self report were followed to assess treatment results. Itching complaints were followed using a 10 point itching scale. Pre-treatment itching scale was entered as 6, with the comment that itching bothered the patient “severely, badly.” RESULTS: Compliance with treatment regimen was documented daily. […] On examination, the scar contours appeared to have become more regular and scar color faded.

[4] = nabumetone, then nabumetone + hydrogel 8 weeks
[5] = 2% salicylic acid under hydrogel, 12 weeks
[6] = 2% salicylic acid under hydrogel

COc1ccc2cc(CCC(C)=O)ccc2c1 [nabumetone, 4-(6-methoxy-2-naphthalenyl)-2-butanone]
patient self-report (hypertrophic scar [1]; nabumetone + hydrogel): improved comfort
redness and tenderness on exam (hypertrophic scar [1]; nabumetone + hydrogel): less redness and tenderness
scar color (photographs) (hypertrophic scar [1]; nabumetone + hydrogel): revert to a color tone more closely matching adjacent skin
reduction in scar size (examination, ultrasound) (hypertrophic scar [1]; oral nabumetone 250-500 mg daily co-administered with AVOGEL hydrogel sheeting 15-18 h/day): 50%
irregular contours (hypertrophic scar [2]; [4]): faded
patient self-report (hypertrophic scar [2]; [4]): improved comfort
scar color on examination (hypertrophic scar [2]; [4]): reverted in color to skin tones closely matching adjacent skin
scar height on examination (hypertrophic scar [2]; oral nabumetone 250 mg daily 4 weeks, then with AVOGEL hydrogel sheeting 15-18 h/day for 8 weeks): became flatter
scar visibility on photographic documentation (hypertrophic scar [2]; treatment day 60): not observable

O=C(O)c1ccccc1O [salicylic acid]
shortened measure of the scar, scar contracture (photographs) (post-operative scar; 2% salicylic acid topically under AVOGEL hydrogel 15-18 h/day, 12 weeks, patient also on oral acetylsalicylic acid 325 mg): 25%
evidence of itching or irritation on examination (post-operative scar; [5]): No evidence of itching or irritation
patient report (post-operative scar; [5]): improved sleep with reduction in scar irritation
scar color on examination (post-operative scar; [5]): lighter than in pre-treatment
scar contours on examination (post-operative scar; [5]): flattened
itching symptoms (itching scale) (post-operative scar; 10 point scale, pre-treatment entered as 0 (aspirin use prior to therapy)): 0
redness and local irritation at scar site (photographs) ([3]; 2% salicylic acid topically under AVOGEL hydrogel 15-18 h/day, 12 weeks): reduced redness and local irritation
evidence of itching or irritation on examination [3, 6]: No evidence of itching or irritation
scar color on examination [3, 6]: faded
scar contours on examination [3, 6]: more regular
itching symptoms (itching scale) ([3]; 10 point scale, 4th week of treatment, pre-treatment 6): 3
scar irritation and pruritis ([3]; end of treatment after 20 weeks): reduced to infrequent
